Laboratory results: PMC2891058 (Biochemistry, 2010)

Legend:
[1] = molecular target: S. typhimurium QAPRTase (quinolinate phosphoribosyltransferase) (Salmonella enterica, UniProt P30012); test: stopped-flow tryptophan fluorescence; format: binding
[2] = molecular target: S. typhimurium QAPRTase (quinolinate phosphoribosyltransferase) (Salmonella enterica, UniProt P30012, D236A); test: biochemical
[3] = molecular target: S. typhimurium QAPRTase (quinolinate phosphoribosyltransferase) (Salmonella enterica, UniProt P30012, E215D); test: biochemical
[4] = molecular target: S. typhimurium QAPRTase (quinolinate phosphoribosyltransferase) (Salmonella enterica, UniProt P30012, E215A); test: biochemical
[5] = molecular target: S. typhimurium QAPRTase (quinolinate phosphoribosyltransferase) (Salmonella enterica, UniProt P30012, K285A); test: biochemical
[6] = molecular target: S. typhimurium QAPRTase (quinolinate phosphoribosyltransferase) (Salmonella enterica, UniProt P30012, E215Q); test: biochemical
[7] = molecular target: S. typhimurium QAPRTase (quinolinate phosphoribosyltransferase) (Salmonella enterica, UniProt P30012, K154A); test: biochemical

SMILES: O=P(O)(O)OC[C@H]1O[C@H](OP(=O)(O)OP(=O)(O)O)[C@H](O)[C@@H]1O [PRPP]
- Kd [1]: 53 µM
- Kd [2]: 127 ± 25 µM
- Kd [3]: 417 ± 76 µM
- Kd [4]: 770 ± 200 µM
- Kd [5]: ~1 mM
- Kd [6]: 113 ± 24 µM
- Kd [7]: > 1 mM
